The source of these data is publication PMC8262356, “SLC26A6-selective inhibitor identified in a small-molecule screen blocks fluid absorption in small intestine” (JCI Insight, 2021).

The test system of one data set is FRT cells. Nature of the data set: Cytotoxicity, Alamar Blue assay. The following applies: 10 μM, 48 h. Type of data set: cell-based, rat. As for the experimental part:
FRT cells were plated in black-walled, clear-bottom tissue culture plates at a density of 20,000 cells/well. After 24 hours in culture, cells were incubated with 10 μM PAT1inh-B01, 0.1% DMSO (vehicle control), or 20 % DMSO (positive control) for 48 hours for assay of cell viability using Alamar Blue (Thermo Fischer Scientific) according to the manufacturer’s instructions.
A general note: Alamar Blue is a resazurin reagent that responds to reducing activity.

Another data set deals with mouse ileal closed loops. Nature of the data set: Closed ileal loop fluid absorption. Type of data set: in vivo. As to the method:
For fluid absorption studies in small intestine, mice were given free access to 5% dextrose in water but not solid food for 24 hours before experiments. Closed midjejunal and ileal loops were prepared and isolated as described previously ([29]). Mice were anesthetized with isoflurane, and body temperature was maintained during surgery at 36°C–38°C using a heating pad. A small abdominal incision was made to expose small intestine for isolation of 3–4 closed small intestinal loops (jejunum or ileum, length 2–3 cm) with sutures. Loops were injected with 100 μL PBS (pH 7.4, 137 mM NaCl, 2.7 mM KCl, 8 mM Na2HPO4, 1.8 mM KH2PO4, 1 mM CaCl2, 0.5 mM MgCl2) containing 30 μM PAT1inh-B01, 10 μM DRAinh-A270, or 10 μM tenapanor (MedChemExpress) (or vehicle, 0.1% DMSO in PBS). In some experiments, 30 μM PAT1inh-B01 and 10 μM DRAinh-A270 were used together. In some experiments to rule out effects of sodium-dependent phosphate transport, the loop lumen contained HEPES-buffered saline (pH 7.4, 137 mM NaCl, 4.5 mM KCl, 10 mM HEPES, 1 mM CaCl2, 0.5 mM MgCl2). The abdominal incision was closed with sutures, and mice were allowed to recover from anesthesia. Intestinal loops were removed at 0 and 30 minutes (in separate mice), and loop length and weight were measured to quantify fluid absorption. In parallel experiments, CF mice were used and loop studies were done as described above. In some experiments, loop fluid was emptied with a syringe, and pH was measured immediately using AB15 pH meter after brief centrifugation at 2000 g for 5 minutes at 4°C.

In data set [1] the test system is loperamide-induced constipation in mice. In words: Loperamide model of constipation. The following applies: 10 mg/kg, oral, stool collected over 3 hours. Type of data set: in vivo, mouse. As for the experimental part: Wild-type CD1 mice were administered loperamide (0.3 mg/kg, intraperitoneally) in PBS containing 5% ethanol (0.1 mg/mL final concentration) to induce constipation ([9], [30]). PAT1inh-B01 and DRAinh-A270, individually or together (10 mg/kg each, in saline containing 5% DMSO and 10% Kolliphor HS 15), or vehicle control were administered by oral gavage 1 hour before loperamide. After loperamide injection mice were placed individually in metabolic cages with free access to food and water. Stool samples were collected for 3 hours, and total stool weight and number of fecal pellets were quantified. To measure stool water content, stool samples were dried at 80°C for 24 hours and water content was calculated as follows: (wet weight – dry weight)/wet weight ([9], [30]).

The structures appear in SMILES notation.

Turning to `Cc1c(Br)c(C(F)(F)F)nn1CC(=O)N1CCc2nc3cc(-c4ccccc4)[nH]n3c(=O)c2C1` [PAT1inh-B01], in the data set with FRT cells, the “cytotoxicity (cell viability, Alamar Blue)” value is recorded as “did not cause cytotoxicity”. In the data set with mouse ileal closed loops (30 μM luminal, 30 minutes, PBS), the “effect on ileal fluid absorption (loop weight-to-length ratio)” value is given as “fully blocked”. Also, the “effect on increase of ileal loop fluid pH” value in the data set on mouse ileal closed loops (30 minutes after injection of PBS (pH 7.4), control pH greater than 8.0) is “prevented”. For the same molecule, the “effect on ileal fluid absorption in absence of luminal phosphate” value in the data set on mouse ileal closed loops (HEPES-buffered saline) is reported as “effectively blocked”. In addition, in the data set with mouse ileal closed loops (ileal loops (abstract)), the “block of fluid absorption in ileal loops” value is over 80%. Moreover, the “effect on stool parameters (weight, number of pellets, water content)” value in data set [1] is “did not affect”.
